The results in this text go back to patent US20240043427A1 (Gilead Sciences, Inc., priority 2020, published 2024).

The target of experiment [1] is T1, CD73 (Homo sapiens (Human), UniProt P21589). Kind of experiment: MDA-MB-231 Cell Based CD73 Activity Assay (DMEM). To be noted: MDA-MB-231-GFP cells, DMEM medium with 10% human plasma, 200 uM AMP. As to the method: MDA-MB-231 Cell Based CD73 Activity Assay (DMEM) MDA-MB-231-GFP cells were seeded in 384-well plates (Greiner 781946) at a density of 3000 cells per well in 50 μL of DMEM medium with 10% HP (human plasma). Cells were plated into assay plate with compounds pre-spotted, for an overnight compound treatment. 50 uL of 400 uM AMP (final concentration will be 200 uM) was added using Bio-tek dispenser. Plates were incubated for 100 mins. […] The samples were analyzed using Rapid fire.
T1 sequence (P21589 27-574): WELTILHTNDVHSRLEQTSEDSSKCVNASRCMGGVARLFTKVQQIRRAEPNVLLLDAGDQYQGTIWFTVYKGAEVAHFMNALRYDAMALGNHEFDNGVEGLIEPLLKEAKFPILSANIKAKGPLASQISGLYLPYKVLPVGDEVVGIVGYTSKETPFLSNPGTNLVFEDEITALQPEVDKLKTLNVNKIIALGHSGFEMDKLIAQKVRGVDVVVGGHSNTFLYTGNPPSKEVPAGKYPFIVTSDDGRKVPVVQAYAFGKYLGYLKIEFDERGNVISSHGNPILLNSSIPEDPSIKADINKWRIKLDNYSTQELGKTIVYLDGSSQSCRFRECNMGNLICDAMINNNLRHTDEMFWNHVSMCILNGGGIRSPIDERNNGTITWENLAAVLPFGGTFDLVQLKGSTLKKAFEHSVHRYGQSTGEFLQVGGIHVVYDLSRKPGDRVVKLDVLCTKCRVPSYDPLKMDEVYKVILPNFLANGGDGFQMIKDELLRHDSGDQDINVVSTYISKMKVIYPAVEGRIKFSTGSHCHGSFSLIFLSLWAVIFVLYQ

Experiment [2] concerns the target T1, CD73. Type of experiment: biochemical. The conditions noted are these: 1 mM NaH2PO4 in enzyme buffer, CD73 0.3 nM, AMP 15 uM.

Molecules are shown by their SMILES.

Consider `N#Cc1ccc([C@H]2C[C@@H]2c2cc(-c3c[nH]c(=O)[nH]c3=O)nn3c(F)cnc23)cn1` (racemic) [Example 375, 5-((1S,2S)-2-(6-(2,4-dioxo-1,2,3,4-tetrahydropyrimidin-5-yl)-3-fluoroimidazo[1,2-b]pyridazin-8-yl)cyclopropyl)picolinonitrile], for which it took 11.2 nM to reach a half-maximal effect at CD73 [1] (EC50). This compound also displayed an IC50 on CD73 [2] of 2.83 nM.
`O=C1N(CC(F)(F)F)c2cc([C@H]3C[C@@H]3c3cc(-c4c[nH]c(=O)[nH]c4=O)nn4ccnc34)ccc2C12CC2` (racemic) [Example 382, 5-(8-((1S,2S)-2-(2′-oxo-1′-(2,2,2-trifluoroethyl)spiro[cyclopropane-1,3′-indolin]-6′-yl)cyclopropyl)imidazo[1,2-b]pyridazin-6-yl)pyrimidine-2,4(1H,3H)-dione]: the EC50 on CD73 [1] worked out at 0.13 nM. Also, 1.63 nM corresponded to half-maximal inhibition against CD73 [2] (IC50).
The corresponding values for `O=c1[nH]cc(-c2cc([C@H]3C[C@@H]3c3ccc4cnn(-c5ccc(C(F)(F)F)cn5)c4c3)c3nccn3n2)c(=O)[nH]1` (racemic) [Example 383, 5-(8-((1S,2S)-2-(1-(5-(trifluoromethyl)pyridin-2-yl)-1H-indazol-6-yl)cyclopropyl)imidazo[1,2-b]pyridazin-6-yl)pyrimidine-2,4(1H,3H)-dione] are 49.3 nM and 1.83 nM.
In turn, `CC(C)c1nn(CC(F)(F)F)c2cc([C@H]3C[C@@H]3c3cc(-c4c[nH]c(=O)[nH]c4=O)nn4ccnc34)ccc12` (racemic) [Example 396, 5-(8-((1S,2S)-2-(3-isopropyl-1-(2,2,2-trifluoroethyl)-1H-indazol-6-yl)cyclopropyl)imidazo[1,2-b]pyridazin-6-yl)pyrimidine-2,4(1H,3H)-dione] gave an EC50 on CD73 [1] of 0.24 nM. At CD73 [2], this compound yielded a 50% inhibitory concentration (IC50) of 2 nM.
The corresponding values for `O=c1[nH]cc(-c2cc([C@@H]3[C@@H](c4ccc(F)c(F)c4)C3(F)F)c3nccn3n2)c(=O)[nH]1` (racemic) [Example 552, 5-(8-((1S,3S)-3-(3,4-difluorophenyl)-2,2-difluorocyclopropyl)imidazo[1,2-b]pyridazin-6-yl)pyrimidine-2,4(1H,3H)-dione] are 15.2 nM and 2.76 nM.
The corresponding values for `O=c1[nH]cc(-c2cc([C@H]3C[C@@H]3c3ccccc3Cl)c3nccn3n2)c(=O)[nH]1` (racemic) [Example 555, 5-(8-((1S,2S)-2-(2-chlorophenyl)cyclopropyl)imidazo[1,2-b]pyridazin-6-yl)pyrimidine-2,4(1H,3H)-dione] are 267 nM and 13.3 nM.
The corresponding values for `O=c1[nH]cc(-c2cc([C@H]3C[C@@H]3c3ccc(OC(F)F)cc3)c3nccn3n2)c(=O)[nH]1` (racemic) [Example 556, 5-(8-((1S,2S)-2-(4-(difluoromethoxy)phenyl)cyclopropyl)imidazo[1,2-b]pyridazin-6-yl)pyrimidine-2,4(1H,3H)-dione] are 14 nM and 3.41 nM.
With `O=c1[nH]cc(-c2cc([C@H]3C[C@@H]3c3ccc(OCC(F)(F)F)cc3)c3nccn3n2)c(=O)[nH]1` (racemic) [Example 564, 5-(8-((1S,2S)-2-(4-(2,2,2-trifluoroethoxy)phenyl)cyclopropyl)imidazo[1,2-b]pyridazin-6-yl)pyrimidine-2,4(1H,3H)-dione], the EC50 at CD73 [1] was 31.3 nM. The compound further showed an IC50 against CD73 [2] of 2.53 nM.
On to `O=c1[nH]cc(-c2cc([C@H]3C[C@@H]3c3ccc(Cl)nc3)c3nccn3n2)c(=O)[nH]1` (racemic) [Example 568, 5-(8-((1S,2S)-2-(6-chloropyridin-3-yl)cyclopropyl)imidazo[1,2-b]pyridazin-6-yl)pyrimidine-2,4(1H,3H)-dione], for which the EC50 on CD73 [1] was determined as 8.1 nM. The compound further came in with an IC50 against CD73 [2] of 2.84 nM.
For `Cc1nc2ccc([C@H]3C[C@@H]3c3cc(-c4c[nH]c(=O)[nH]c4=O)nn4ccnc34)cc2s1` (racemic) [Example 570, 5-(8-((1S,2S)-2-(2-methylbenzo[d]thiazol-6-yl)cyclopropyl)imidazo[1,2-b]pyridazin-6-yl)pyrimidine-2,4(1H,3H)-dione] the same measures were 0.84 nM and 0.8 nM.
